pIC50: −log10 of the molar value.
Columns and labels:
5-lipoxygenase = biological target: T1, 5-lipoxygenase (Rattus norvegicus, UniProt P12527); assay: In vitro inhibition of 5-lipoxygenase (20,000xg supernatant from homogenized RBL-1 cells); format: biochemical; details: read-out: IC50 (concentrations producing 50% enzyme inhibition)
T1 construct: 20,000xg supernatant from homogenized RBL-1 cells; endogenous in cells; host or cells: RBL-1 cells (20,000xg supernatant of homogenate)
T1 sequence (P12527 1-673): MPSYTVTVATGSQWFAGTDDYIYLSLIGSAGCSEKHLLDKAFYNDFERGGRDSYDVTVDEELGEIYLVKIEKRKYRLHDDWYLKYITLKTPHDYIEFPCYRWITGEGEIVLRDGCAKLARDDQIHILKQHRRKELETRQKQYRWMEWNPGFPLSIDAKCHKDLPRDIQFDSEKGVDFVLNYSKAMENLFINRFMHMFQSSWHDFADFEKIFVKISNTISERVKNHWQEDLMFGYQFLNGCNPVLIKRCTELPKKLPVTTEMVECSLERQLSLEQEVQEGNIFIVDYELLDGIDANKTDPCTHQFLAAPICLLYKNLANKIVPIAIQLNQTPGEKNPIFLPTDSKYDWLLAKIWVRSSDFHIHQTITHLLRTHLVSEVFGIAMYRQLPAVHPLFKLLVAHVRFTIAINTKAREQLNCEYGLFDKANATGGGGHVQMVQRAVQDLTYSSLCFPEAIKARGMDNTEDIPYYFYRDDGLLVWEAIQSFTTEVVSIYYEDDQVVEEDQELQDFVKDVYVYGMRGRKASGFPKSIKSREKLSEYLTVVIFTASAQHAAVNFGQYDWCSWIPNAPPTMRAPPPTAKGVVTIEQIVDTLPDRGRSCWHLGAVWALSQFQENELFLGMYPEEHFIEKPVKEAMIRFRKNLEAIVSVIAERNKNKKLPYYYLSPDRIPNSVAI
Description: The In vitro effect of the compounds of the present invention on 5-lipoxygenase activity was evaluated using the 20,000xg supernatant from homogenized RBL-1 cells in a manner similar to that described by Dyer and coworkers in Fed. Proc., Fed. Am. Soc. Exp. Biol. 43:[…] (1984). IC50 values (i.e., concentrations of the compounds producing 50% enzyme inhibition) were calculated by linear regression analysis of percentage inhibition versus log inhibitor concentration plots.

leukotriene biosynthesis = assay: In vivo inhibition of leukotriene biosynthesis, rat peritoneal anaphylaxis model; details: 200 μmol/kg PO (gavage) one hour prior to antigen challenge, peritoneal fluids collected 15 minutes after challenge
Description: The in vivo inhibition of leukotriene biosynthesis by the compounds of the present invention was evaluated in the following manner. The effect of the compounds after oral administration was determined using a rat peritoneal anaphylaxis model in a manner similar to that described by Young and coworkers in Fed. Proc., Fed. Am. Soc. Exp. Biol. 44:1185 (1985). According to this model rats were injected intraperitoneally (IP) with rabbit antibody to bovine serum albumin (BSA) and three hours later injected IP with BSA to induce an antigen-antibody response. Rats were sacrificed 15 minutes after this challenge and the peritoneal fluids were collected and analyzed for leukotriene levels. Test compounds were administered by gavage (PO) one hour prior to the antigen challenge. Percent inhibition values were determined by comparing the treatment group to the mean of the control group.

SMILES | pIC50 (5-lipoxygenase) | In vivo Inhibition of Leukotriene Biosynthesis (leukotriene biosynthesis) [%]
CC(C)Cc1ccc(C(C)CN(O)C(N)=O)cc1 (stereo not drawn) [Example 17, N-hydroxy-N-[2-(4-(2-methylpropyl)phenyl)propyl] urea] | 6.70 | 
CC(C)Cc1ccc(C(C)N(O)C(N)=S)cc1 (stereo not drawn) [Example 29, N-hydroxy-N-[1-(4-(2'-methylpropyl)phenyl)ethyl] thiourea] | > 6.40 | 
CNC(=O)N(O)CCc1c(C)n(C(=O)c2ccc(Cl)cc2)c2ccc(OC)cc12 [Example 32, N-hydroxy-N-[2-(N-(4-chlorobenzoyl)-5-methoxy-2-methyl-[1H]-indol-3-yl)ethyl]-N'-methyl urea] | 6.70 | 42
CCSC(=O)N(O)C(C)c1ccc(CC(C)C)cc1 (stereo not drawn) [Example 31, N-hydroxy-N-[1-(4-(2'-methylpropyl)phenyl)ethyl] thioethylcarbamate] | 6.70 | 
CC(C)Cc1ccc(C(C)N(O)C(N)=O)cc1 (stereo not drawn) [Example 1, N-hydroxy-N-[1-(4-(2'-methylpropyl)phenyl)ethyl]urea] | 6.19 | 
CCOC(=O)N(O)C(C)c1ccc(CC(C)C)cc1 (stereo not drawn) [Example 30, N-hydroxy-N-[1-(4-(2'-methylpropyl)phenyl)ethyl] ethoxycarbamate] | > 6.40 | 
COc1ccc2c(c1)c(CCN(O)C(N)=O)c(C)n2C(=O)c1ccc(Cl)cc1 [Example 16, N-hydroxy-N-[2-(N-(4-chlorobenzoyl)-5-methoxy-2-methyl-[1H]-indol-3-yl)ethyl] urea] | 6.40 | 

More lines, main results first:

pIC50 (5-lipoxygenase) | SMILES | In vivo Inhibition of Leukotriene Biosynthesis (leukotriene biosynthesis) [%]
6.37 | COc1ccc2cc(C(C)N(O)C(N)=O)ccc2c1 (stereo not drawn) [Example 2, N-hydroxy-N-1-(6-methoxynaphthalen-2-yl)ethyl urea] | 66
6.22 | CNC(=O)N(O)C(C)c1ccc2cc(OC)ccc2c1 (stereo not drawn) [Example 4, N'-methyl-N-hydroxy-N-1-(6-methoxynaphthalen-2-yl)ethyl urea] | 
6.15 | COc1ccc2cc(C(C)N(O)C(C)=O)ccc2c1 (stereo not drawn) [Example 5, N-hydroxy-N-1-(6-methoxynaphthalen-2-yl)ethyl acetamide] | 62
6.15 | CNC(=O)N(O)C(C)c1ccc(CC(C)C)cc1 (stereo not drawn) [Example 3, N'-methyl-N-hydroxy-N-1-(4-(2'-methylpropyl)phenyl)ethyl urea] | 39

Source: patent US5220059A, “Lipoxygenase-inhibiting compounds derived from non-steroidal antiinflammatory carboxylic acids” (Abbott Laboratories, priority 1990, dated 1993)
